Columns and labels:
Type in all cases: physicochemical
[1] = Hygroscopicity observation
Text: Apart from the conventional formulation that are described the Ceftiofur sodium formulation may also contain chelating agent like ethylene diamine tetraacetic acid (EDTA) or a buffer like sodium citrate along with or with out conventional excipient. The pharmaceutical composition may also contain amorphous Ceftiofur sodium along with crystalline Ceftiofur sodium.

[2] = Stability at 40 ± 2° C. & 75 ± 5% RH; conditions: for Assay: in % (unit assumed)
Text: (§1) The following Tables (Table 2 & 3) provide stability data of crystalline Ceftiofur Sodium prepared according to this invention. From this it table it is evident that the crystalline Ceftiofur Sodium prepared according this invention is a very stable and a highly pure material, which is clearly indicated by total RS (Related substances) analysis & the stability data. [table]

[3] = Comparison of physical characteristics: tapped bulk density
Text: The following Table provides a comparison of physical characteristics of amorphous and crystalline Ceftiofur Sodium. From this table it is evident that the crystalline Ceftiofur Sodium has better physical characteristics than amorphous material. [table]

[4] = Stability at 25 ± 2° C. & 60 ± 5% RH; conditions: for Assay: in % (unit assumed)
Text: as §1

| Hygroscopic nature [1] | Total RS (Related substances) ([2]; 2 month) [%] | Assay ([2]; 2 month) | Total RS (Related substances) ([2]; 15 days) [%] | Assay ([2]; 15 days) | Total RS (Related substances) ([2]; Initial) [%] | Assay ([2]; Initial) | Tapped Bulk density [3] [g/mL] | Total RS (Related substances) ([4]; 1 month) [%] | Assay ([4]; 1 month) | Total RS (Related substances) ([4]; 2 month) [%] | Assay ([4]; 2 month) | Total RS (Related substances) ([4]; Initial) [%] | Assay ([4]; Initial) | SMILES |
| --- | --- | --- | --- | --- | --- | --- | --- | --- | --- | --- | --- | --- | --- | --- |
| non-hygroscopic |  |  |  |  |  |  |  |  |  |  |  |  |  | CO/N=C(\C(=O)N[C@@H]1C(=O)N2C(C(=O)[O-])=C(CSC(=O)c3ccco3)CS[C@H]12)c1csc(N)n1.[Na+] [Ceftiofur sodium] |
| non-hygroscopic | 0.93 | 100.61 | 0.78 | 100.64 | 0.61 | 101.25 | 0.8 | 0.75 | 101.18 | 0.78 | 100.31 | 0.61 | 101.25 | CO/N=C(\C(=O)NC1C(=O)N2C(C(=O)[O-])=C(CSC(=O)c3ccco3)CSC12)c1csc(N)n1.[Na+] (centres unmarked) [Crystalline Ceftiofur sodium, Ceftiofur sodium] |
| highly hygroscopic |  |  |  |  |  |  | 0.5 |  |  |  |  |  |  | CO/N=C(\C(=O)NC1C(=O)N2C(C(=O)[O-])=C(CSC(=O)c3ccco3)CSC12)c1csc(N)n1.[Na+] (centres unmarked) [Amorphous Ceftiofur sodium, Ceftiofur sodium, reference compound] |

From patent US8212024B2, “Crystalline sodium salt of cephalosporin antibiotic” (Orchid Chemicals & Pharmaceuticals Ltd., priority 2005, dated 2012)
